Reference: BindingDB's records for doi:10.1016/j.chembiol.2009.09.012 (University of California Irvine, 2009)
pIC50: −log10 of the molar value.

Molecular target: T1, Monoglyceride lipase (Rattus norvegicus, UniProt Q8R431)
T1 sequence (Q8R431 whole entry): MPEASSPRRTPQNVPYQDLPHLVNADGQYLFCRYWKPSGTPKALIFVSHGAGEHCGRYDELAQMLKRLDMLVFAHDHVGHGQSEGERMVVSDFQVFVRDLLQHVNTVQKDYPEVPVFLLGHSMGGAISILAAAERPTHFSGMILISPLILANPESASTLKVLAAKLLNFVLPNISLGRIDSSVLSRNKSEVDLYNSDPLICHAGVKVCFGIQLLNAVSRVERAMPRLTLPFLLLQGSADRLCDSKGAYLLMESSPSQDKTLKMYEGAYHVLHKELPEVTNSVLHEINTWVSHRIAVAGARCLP
Test: Enzyme Assay
Conditions: 37 °C
Experimental: Purified recombinant rat MGL was prepared and enzyme activity was assayed.

SMILES | pIC50
CC(=O)Oc1cc2c(c(C)c1OC(C)=O)CC=C1[C@@]2(C)CC[C@@]2(C)[C@@H]3C[C@](C)(C(=O)O)CC[C@]3(C)CC[C@]12C [Dihydrocelastryl diacetate] | 4.82
COC(=O)[C@]1(C)CC[C@]2(C)CC[C@]3(C)C4=CCc5c(cc(O)c(O)c5C)[C@]4(C)CC[C@@]3(C)C2C1 (stereo not given in full) [Pristimerol] | 5.40
C=c1c(O)c(O)cc2c1=CC=C1[C@@]2(C)CC[C@@]2(C)C3C[C@](C)(C(=O)OC)CC[C@]3(C)CC[C@]12C (stereo not given in full) [Pristimerin] | 7.03
Cc1c(O)c(O)cc2c1CC=C1[C@@]2(C)CC[C@@]2(C)C3C[C@](C)(C(=O)O)CC[C@]3(C)CC[C@]12C (stereo not given in full) [Dihydrocelastrol] | 4.82
C=c1c(O)c(O)cc2c1=CC=C1[C@@]2(C)CC[C@@]2(C)[C@@H]3C[C@](C)(C(=O)O)CC[C@]3(C)CC[C@]12C | 5.80
